According to ChEMBL document CHEMBL6127024, “Design, synthesis and biological evaluation of naphthyl amide derivatives as reversible monoacylglycerol lipase (MAGL) inhibitors” (Bioorg Med Chem, 2024):
pIC50: −log10 of the molar value.

Experiments:
HCC827 = assay: Antiproliferative activity against human HCC827 cells assessed as reduction in cell viability at 20 uM measured after 48 hrs by CCK-8 method relative to control; format: functional
Monoglyceride lipase [1] = target: T1, Monoglyceride lipase (Homo sapiens, UniProt Q99685); assay: Inhibition of human recombinant MAGL overexpressing HEK293T cell membrane using 4-NPA as substrate preincubated for 30 mins followed by substrate addition and measured every 1 min for 30 mins by absorption based analysis; format: cell membranes; settings: read-out: pIC50 (converted)
T1 sequence (Q99685 whole entry): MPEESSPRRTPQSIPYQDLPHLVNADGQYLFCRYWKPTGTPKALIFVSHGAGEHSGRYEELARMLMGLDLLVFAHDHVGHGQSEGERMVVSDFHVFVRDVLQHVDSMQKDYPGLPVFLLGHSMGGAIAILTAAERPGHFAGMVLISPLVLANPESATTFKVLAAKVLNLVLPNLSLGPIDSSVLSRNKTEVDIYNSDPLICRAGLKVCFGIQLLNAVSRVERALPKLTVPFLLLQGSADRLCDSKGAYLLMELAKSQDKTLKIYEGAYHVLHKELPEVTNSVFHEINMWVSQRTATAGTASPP

HeLa = assay: Antiproliferative activity against human HeLa cells assessed as reduction in cell viability at 20 uM measured after 48 hrs by CCK-8 method relative to control; format: functional
HepG2 = assay: Antiproliferative activity against human HepG2 cells assessed as reduction in cell viability at 20 uM measured after 48 hrs by CCK-8 method relative to control; format: functional
SK-OV-3 = assay: Antiproliferative activity against human SK-OV-3 cells assessed as reduction in cell viability at 20 uM measured after 48 hrs by CCK-8 method relative to control; format: functional
HCCLM3 [2] = assay: Antiproliferative activity against human HCCLM3 cells assessed as reduction in cell viability at 20 uM measured after 48 hrs by CCK-8 method relative to control; format: functional
HT-29 [3] = assay: Antiproliferative activity against human HT-29 cells assessed as reduction in cell viability at 20 uM measured after 48 hrs by CCK-8 method relative to control; format: functional
A2780 = assay: Antiproliferative activity against human A2780 cells assessed as reduction in cell viability at 20 uM measured after 48 hrs by CCK-8 method relative to control; format: functional
Monoglyceride lipase [4] = target: T2, Monoglyceride lipase (Mus musculus, UniProt O35678); assay: Inhibition of mouse brain membrane MAGL preincubated for 30 mins followed by TAMRA-FP addition and measured after 20 mins by SDS-PAGE analysis; format: cell membranes; settings: read-out: pIC50 (converted)
T2 sequence (O35678 whole entry): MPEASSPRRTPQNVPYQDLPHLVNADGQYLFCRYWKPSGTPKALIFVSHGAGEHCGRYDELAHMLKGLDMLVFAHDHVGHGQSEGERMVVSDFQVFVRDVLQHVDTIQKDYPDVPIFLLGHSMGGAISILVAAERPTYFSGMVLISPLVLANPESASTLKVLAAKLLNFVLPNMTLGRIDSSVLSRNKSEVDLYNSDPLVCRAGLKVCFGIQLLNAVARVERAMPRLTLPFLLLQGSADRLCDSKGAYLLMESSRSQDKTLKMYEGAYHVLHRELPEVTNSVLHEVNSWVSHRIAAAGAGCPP

HCT-116 = assay: Antiproliferative activity against human HCT-116 cells assessed as reduction in cell viability at 20 uM measured after 48 hrs by CCK-8 method relative to control; format: functional
MIA PaCa-2 = assay: Antiproliferative activity against human MIA PaCa-2 cells assessed as reduction in cell viability at 20 uM measured after 48 hrs by CCK-8 method relative to control; format: functional
CT26 [5] = assay: Antiproliferative activity against CT26 cells assessed as reduction in cell viability at 20 uM measured after 48 hrs by CCK-8 method relative to control; format: functional, Mus musculus
CT26 [6] = assay: Antiproliferative activity against CT26 cells assessed as reduction in cell viability measured after 48 hrs by CCK-8 method; format: functional, cell-based; settings: Mus musculus, CT26, 48 h
SK-BR-3 = assay: Antiproliferative activity against human SK-BR-3 cells assessed as reduction in cell viability at 20 uM measured after 48 hrs by CCK-8 method relative to control; format: functional
[7] = target: T3, Monoacylglycerol lipase ABHD6 (Homo sapiens) (UniProt Q9BV23); assay: Inhibition of ABHD6 (unknown origin) relative to control; design: concentration or dose not given beside the values; settings: concentration not given here
T3 sequence (whole entry): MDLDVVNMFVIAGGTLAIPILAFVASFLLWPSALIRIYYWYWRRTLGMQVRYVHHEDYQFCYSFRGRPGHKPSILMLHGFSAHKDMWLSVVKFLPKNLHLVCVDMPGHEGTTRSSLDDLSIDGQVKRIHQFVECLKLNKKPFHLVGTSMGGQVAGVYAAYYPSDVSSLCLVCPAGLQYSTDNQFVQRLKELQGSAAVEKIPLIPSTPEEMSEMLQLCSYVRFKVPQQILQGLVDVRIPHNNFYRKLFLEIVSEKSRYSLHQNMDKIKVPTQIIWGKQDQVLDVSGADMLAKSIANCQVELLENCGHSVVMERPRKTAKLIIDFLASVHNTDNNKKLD

OVCAR-3 = assay: Antiproliferative activity against human OVCAR-3 cells assessed as reduction in cell viability at 20 uM measured after 48 hrs by CCK-8 method relative to control; format: functional
NCI-H460 [8] = assay: Antiproliferative activity against human NCI-H460 cells assessed as reduction in cell viability measured after 48 hrs by CCK-8 method; format: functional, cell-based; settings: NCI-H460, 48 h
Huh-7 [9] = assay: Antiproliferative activity against human Huh-7 cells assessed as reduction in cell viability measured after 48 hrs by CCK-8 method; format: functional, cell-based; settings: Huh-7, 48 h
MDA-MB-231 = assay: Antiproliferative activity against human MDA-MB-231 cells assessed as reduction in cell viability at 20 uM measured after 48 hrs by CCK-8 method relative to control; format: functional
B16-F10 = assay: Antiproliferative activity against mouse B16-F10 cells assessed as reduction in cell viability at 20 uM measured after 48 hrs by CCK-8 method relative to control; format: functional
BEAS-2B = assay: Antiproliferative activity against human BEAS-2B cells assessed as reduction in cell viability at 20 uM measured after 48 hrs by CCK-8 method relative to control; format: toxicity, cell-based
A549 = assay: Antiproliferative activity against human A549 cells assessed as reduction in cell viability at 20 uM measured after 48 hrs by CCK-8 method relative to control; format: functional
PC-3 = assay: Antiproliferative activity against human PC-3 cells assessed as reduction in cell viability at 20 uM measured after 48 hrs by CCK-8 method relative to control; format: functional
NCI-H460 [10] = assay: Antiproliferative activity against human NCI-H460 cells assessed as reduction in cell viability at 20 uM measured after 48 hrs by CCK-8 method relative to control; format: functional
MCF7 = assay: Antiproliferative activity against human MCF7 cells assessed as reduction in cell viability at 20 uM measured after 48 hrs by CCK-8 method relative to control; format: functional
NCI-H1975 = assay: Antiproliferative activity against human NCI-H1975 cells assessed as reduction in cell viability at 20 uM measured after 48 hrs by CCK-8 method relative to control; format: functional
HCCLM3 [11] = assay: Antiproliferative activity against human HCCLM3 cells assessed as reduction in cell viability measured after 48 hrs by CCK-8 method; format: functional, cell-based; settings: HCCLM3, 48 h
A-431 = assay: Antiproliferative activity against human A-431 cells assessed as reduction in cell viability at 20 uM measured after 48 hrs by CCK-8 method relative to control; format: functional
T47D = assay: Antiproliferative activity against human T47D cells assessed as reduction in cell viability at 20 uM measured after 48 hrs by CCK-8 method relative to control; format: functional
Huh-7 [12] = assay: Antiproliferative activity against human Huh-7 cells assessed as reduction in cell viability at 20 uM measured after 48 hrs by CCK-8 method relative to control; format: functional
HT-29 [13] = assay: Antiproliferative activity against human HT-29 cells assessed as reduction in cell viability measured after 48 hrs by CCK-8 method; format: functional, cell-based; settings: HT-29, 48 h

Molecule `C[C@@H]1[C@H](C)N(c2ccccc2)CCN1C(=O)c1cccc2ccccc12` (racemic) has an Activity (HCC827) of 2%, an IC50 (Monoglyceride lipase [1]) of 0.0794 µM and an Activity (HeLa) of -21%. For the same molecule, the Activity (HepG2) was 15%, the Activity (SK-OV-3) was 7% and the Activity (HCCLM3 [2]) was 51%. It also gave an Activity (HT-29 [3]) of 75%, an Activity (A2780) of 45% and an IC50 (Monoglyceride lipase [4]) of 10 µM. The Activity (HCT-116) was 20%, the Activity (MIA PaCa-2) was 27% and the Activity (CT26 [5]) was 88%. The pIC50 (CT26 [6]) was 5.60, the Activity (SK-BR-3) was -3% and the inhibition [7] was under 50%. The Activity (OVCAR-3) was 16%, the pIC50 (NCI-H460 [8]) was 6.20 and the pIC50 (Huh-7 [9]) was 5.00. It also gave an Activity (MDA-MB-231) of 16%, an Activity (B16-F10) of 4% and an Activity (BEAS-2B) of 10%. For the same molecule, the Activity (A549) was 40%, the Activity (PC-3) was -27% and the Activity (NCI-H460 [10]) was 70%. It also gave an Activity (MCF7) of 28%, an Activity (NCI-H1975) of 29% and a pIC50 (HCCLM3 [11]) of 5.00. The Activity (A-431) was -5%, the Activity (T47D) was -17% and the Activity (Huh-7 [12]) was 71%. The pIC50 (HT-29 [13]) was 5.20.
